Test results from publication PMC5719086, “Effective in vivo gene delivery with reduced toxicity, achieved by charge and fatty acid -modified cell penetrating peptide” (Scientific Reports, 2017).
Read-outs that look alike come from different tables or passages of the source. Square brackets hold non-standard residues; d marks the D form. Peptide text beside a SMILES is read from it. * marks the point of attachment. Docosanoyl = CCCCCCCCCCCCCCCCCCCCCC(=O)*; Stearoyl = CCCCCCCCCCCCCCCCCC(=O)*; Decanoyl = CCCCCCCCCC(=O)*; Orn = NCCC[C@H](N)C(=O)O

Columns and labels:
[1] = system: mouse RBC; experiment: Hemolysis assay (activity towards cell membranes); format: cell-based; details: 1 h 37 °C, triplicates
Description: The ability of the peptides to lyse the red blood cells (RBC) in PBS was used as a measure of membrane activity. To obtain fresh mouse RBC, blood was collected from the saphenous vein using sodium-heparinized (80 iu/ml ± 30%) blood collection capillaries (Marienfeld, Germany) and transferred to heparinized blood collecting tubes (Sarstedt, Germany). To isolate RBCs, the whole blood was centrifuged for 15 minutes at 300 × g, followed by removal of the plasma. The RBCs were then washed three times with 1 × PBS (RBC pelleting with 15 minutes at 300 × g). The resulting RBCs were then resuspended in PBS at 4% (v/v).
For the analysis, 200 μl of RBC suspension was added to 200 μl of peptide solution or peptide/pDNA complexes in 5% glucose (final RBC concentration 2%) and gently vortexed. The peptide/pDNA complexes were prepared using a fixed 1 μg of pDNA and varying amount of the peptide. Following this, samples were incubated for 1 hour at 37 °C with gentle stirring. After incubation, the RBCs were pelleted (15 minutes at 300 × g) and the amount of hemoglobin in the supernatant was assessed by measuring the absorbance at 540 nm using a 96-well microplate reader. The experiments were conducted in triplicates.
100% of hemolysis was defined as the RBCs treated with 0.1% Triton-X100 in PBS and 0% was obtained with cells incubated in 5% glucose solution. % of hemolysis was calculated by the formula: % Hemolysis = [(Asample − Aglucose)/Atriton − Aglucose)] × 100.

[2] = Complex stability in FBS, gel shift assay; details: 37 °C; for pDNA migration from complexes after 48 h in serum (in words): serum and/or triton + heparin dissociation
Description: Then the samples were mixed with the DNA loading dye and electrophoresed exactly as stated above in the Gel shift assay description, using 0.1 µg of pDNA per lane. ZipRuler Express DNA Ladder 2 (ThermoFisher Scientific) was added to each gel.
The stability of the complexes after incubation in FBS, visualized by gel shift assay.

[3] = target: T1, proteinase K (Parengyodontium album, UniProt P06873); experiment: Proteinase K treatment of CPP/pDNA complexes; format: in vitro ADME; details: 26 °C; for Proteinase K: t1/2 (min) of the complexed pDNA (95%CI): CPP/pDNA complexes at N/P2 in MQ, proteinase K ~2.4 U per well, accessible pDNA by PicoGreen fluorescence, normalized to free pDNA; for stability of the complexes against proteinase K (in words): CPP/pDNA complexes at N/P2, accessible pDNA over time by intercalating dye
T1 construct: purchased Thermo Scientific
T1 sequence (P06873 106-384): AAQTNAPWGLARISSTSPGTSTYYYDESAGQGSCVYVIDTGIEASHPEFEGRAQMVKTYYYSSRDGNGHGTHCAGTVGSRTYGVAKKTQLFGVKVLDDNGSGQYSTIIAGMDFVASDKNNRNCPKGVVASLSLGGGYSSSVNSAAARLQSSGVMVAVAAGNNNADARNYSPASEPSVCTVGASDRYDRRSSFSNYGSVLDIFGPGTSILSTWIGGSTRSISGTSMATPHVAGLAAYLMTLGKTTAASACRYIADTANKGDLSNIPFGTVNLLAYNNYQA
Description: For the proteinase K treatment, 30 μl of pre-formed CPP/pDNA complex solution (0.3, 0.2, 0.1 and 0.05 µg of pDNA per sample) or CPP in MQ was transferred to a black 96-well plate and 90 µl of MQ was added. After a short period of mixing, fluorescent DNA intercalating dye dilution was added (Quant-iT™ PicoGreen®, ThermoFisher Scientific) and incubated for 5 minutes at room temperature. The fluorescence was measured (Synergy MX, BioTek; λex 492 and λem 535) to quantify the initial accessibility of pDNA. Thereafter 10 μl of Proteinase K (Thermo Scientific) was added with the final enzyme concentration ~2.4 U per well. Fluorescence was measured over an indicated period at 26 °C. The readings were normalized against the fluorescence of free pDNA.

[4] = naked peptide in 5% glucose, mouse RBC 2% final in PBS, hemoglobin absorbance 540 nm, 100% = 0.1% Triton X-100, read-out: EC50 (μM) of CPP (membrane activity, concentration required to lyse 50% of the cells)
[5] = peptide/pDNA complexes, fixed 1 μg pDNA and varying peptide, mouse RBC 2% final, absorbance 540 nm, read-out: EC50 (μM) of CPP/pDNA (membrane activity)

Compound | EC50 [1, 4] | EC50 [1, 5] | pDNA migration from complexes after 48 h in serum (in words) ([2]; 50% FBS) | Proteinase K: t1/2 (min) of the complexed pDNA (95%CI) [3] | stability of the complexes against proteinase K (in words) [3] | time to pDNA degradation (DNA smear) in serum ([2]; 50% FBS, EtBr) | onset of DNA migration from complexes in serum ([2]; complexes N/P2 (jetPEI N/P8) in 50% FBS, EtBr)
CCCCCCCCCCCCCCCCCCCCCC(=O)N[C@@H](C)C(=O)NCC(=O)N[C@@H](Cc1ccc(O)cc1)C(=O)N[C@@H](CC(C)C)C(=O)N[C@@H](CC(C)C)C(=O)NCC(=O)N[C@@H](CCCCN)C(=O)N[C@@H](CC(C)C)C(=O)N[C@@H](CC(C)C)C(=O)N[C@@H](CCCN)C(=O)N[C@@H](CCCN)C(=O)N[C@@H](CC(C)C)C(=O)N[C@@H](C)C(=O)N[C@@H](C)C(=O)N[C@@H](C)C(=O)N[C@@H](C)C(=O)N[C@@H](CC(C)C)C(=O)N[C@@H](CCCN)C(=O)N[C@@H](CCCN)C(=O)N[C@@H](CC(C)C)C(=O)N[C@@H](CC(C)C)C(N)=O [C22-PF14] (Docosanoyl-AGYLLGKLL[Orn][Orn]LAAAAL[Orn][Orn]LL-NH2) | 0.64 µM | 1.47 µM | less migration and less degradation | 162.7 (159.6 ± 166.7) min | – | – | –
CCCCCCCCCCCCCCCCCC(=O)N[C@@H](C)C(=O)NCC(=O)N[C@@H](Cc1ccc(O)cc1)C(=O)N[C@@H](CC(C)C)C(=O)N[C@@H](CC(C)C)C(=O)NCC(=O)N[C@@H](CCCCN)C(=O)N[C@@H](CC(C)C)C(=O)N[C@@H](CC(C)C)C(=O)N[C@@H](CCC(=O)O)C(=O)N[C@@H](CCCN)C(=O)N[C@@H](CC(C)C)C(=O)N[C@@H](C)C(=O)N[C@@H](C)C(=O)N[C@@H](C)C(=O)N[C@@H](C)C(=O)N[C@@H](CC(C)C)C(=O)N[C@@H](CCCN)C(=O)N[C@@H](CCCN)C(=O)N[C@@H](CC(C)C)C(=O)N[C@@H](CC(C)C)C(N)=O [PF14-E] (Stearoyl-AGYLLGKLLE[Orn]LAAAAL[Orn][Orn]LL-NH2) | 0.67 µM | 2.36 µM | – | 16.7 (10.5 ± 21.8) min | – | – | –
CCCCCCCCCC(=O)N[C@@H](C)C(=O)NCC(=O)N[C@@H](Cc1ccc(O)cc1)C(=O)N[C@@H](CC(C)C)C(=O)N[C@@H](CC(C)C)C(=O)NCC(=O)N[C@@H](CCCCN)C(=O)N[C@@H](CC(C)C)C(=O)N[C@@H](CC(C)C)C(=O)N[C@@H](CCCN)C(=O)N[C@@H](CCCN)C(=O)N[C@@H](CC(C)C)C(=O)N[C@@H](C)C(=O)N[C@@H](C)C(=O)N[C@@H](C)C(=O)N[C@@H](C)C(=O)N[C@@H](CC(C)C)C(=O)N[C@@H](CCCN)C(=O)N[C@@H](CCCN)C(=O)N[C@@H](CC(C)C)C(=O)N[C@@H](CC(C)C)C(N)=O [C10-PF14] (Decanoyl-AGYLLGKLL[Orn][Orn]LAAAAL[Orn][Orn]LL-NH2) | 0.36 µM | 0.86 µM | less migration and less degradation | 26.7 (20.1 ± 32.5) min | – | – | –
CCCCCCCCCCCCCCCCCC(=O)N[C@@H](C)C(=O)NCC(=O)N[C@@H](Cc1ccc(O)cc1)C(=O)N[C@@H](CC(C)C)C(=O)N[C@@H](CC(C)C)C(=O)NCC(=O)N[C@@H](CCCCN)C(=O)N[C@@H](CC(C)C)C(=O)N[C@@H](CC(C)C)C(=O)N[C@@H](CCCN)C(=O)N[C@@H](CCCN)C(=O)N[C@@H](CC(C)C)C(=O)N[C@@H](C)C(=O)N[C@@H](CCCN)C(=O)N[C@@H](CCCN)C(=O)N[C@@H](C)C(=O)N[C@@H](CC(C)C)C(=O)N[C@@H](CCCN)C(=O)N[C@@H](CCCN)C(=O)N[C@@H](CC(C)C)C(=O)N[C@@H](CC(C)C)C(N)=O [PF14-O] (Stearoyl-AGYLLGKLL[Orn][Orn]LA[Orn][Orn]AL[Orn][Orn]LL-NH2) | 0.6 µM | 1.17 µM | migration of pDNA from some of the complexes could be observed | 94.2 (90.7 ± 97.4) min | – | – | –
CCCCCCCCCCCCCCCCCCCCCC(=O)N[C@@H](C)C(=O)NCC(=O)N[C@@H](Cc1ccc(O)cc1)C(=O)N[C@@H](CC(C)C)C(=O)N[C@@H](CC(C)C)C(=O)NCC(=O)N[C@@H](CCCCN)C(=O)N[C@@H](CC(C)C)C(=O)N[C@@H](CC(C)C)C(=O)N[C@@H](CCCN)C(=O)N[C@@H](CCCN)C(=O)N[C@@H](CC(C)C)C(=O)N[C@@H](C)C(=O)N[C@@H](CCCN)C(=O)N[C@@H](CCCN)C(=O)N[C@@H](C)C(=O)N[C@@H](CC(C)C)C(=O)N[C@@H](CCCN)C(=O)N[C@@H](CCCN)C(=O)N[C@@H](CC(C)C)C(=O)N[C@@H](CC(C)C)C(N)=O [C22-PF14-O] (Docosanoyl-AGYLLGKLL[Orn][Orn]LA[Orn][Orn]AL[Orn][Orn]LL-NH2) | – | – | migration of pDNA from some of the complexes could be observed | – | virtually inaccessible to the enzyme | – | –
CC(C)C[C@H](NC(=O)[C@H](CC(C)C)NC(=O)[C@H](CCCN)NC(=O)[C@H](CCCN)NC(=O)[C@H](CC(C)C)NC(=O)[C@H](C)NC(=O)[C@H](C)NC(=O)[C@H](C)NC(=O)[C@H](C)NC(=O)[C@H](CC(C)C)NC(=O)[C@H](CCCN)NC(=O)[C@H](CCCN)NC(=O)[C@H](CC(C)C)NC(=O)[C@H](CC(C)C)NC(=O)[C@H](CCCCN)NC(=O)CNC(=O)[C@H](CC(C)C)NC(=O)[C@H](CC(C)C)NC(=O)[C@H](Cc1ccc(O)cc1)NC(=O)CNC(=O)[C@H](C)N)C(N)=O [C0-PF14] (H-AGYLLGKLL[Orn][Orn]LAAAAL[Orn][Orn]LL-NH2) | 5.36 µM | 7.09 µM | – | 0.5 (−0.8 ± 1.5) min | clearly a favorable substrate to the proteinase | about 24 h | ≤ 0.5 h
